Series [1] has as its target T1, human NK-3 receptor (Homo sapiens (Human), UniProt P29371). The experiment in a line: 3H-SB222200 binding competition assay with human NK-3 receptor. The method, then:
The affinity of compounds of the invention for the human NK-3 receptor was determined by measuring the ability of compounds of the invention to competitively and reversibly displace a well-characterized NK-3 radioligand in a concentration-dependent manner.
^3H-SB222200 Binding Competition Assay with Human NK-3 Receptor
The ability of compounds of the invention to inhibit the binding of the NK-3 receptor selective antagonist ^3H-SB222200 was assessed by an in vitro radioligand binding assay. Membranes were prepared from Chinese hamster ovary recombinant cells stably expressing the human NK-3 receptor. The membranes were incubated with 5 nM ^3H-SB222200 (ARC) in a HEPES 25 mM/NaCl 0.1M/CaCl2 1 mM/MgCl2 5 mM/BSA 0.5%/Saponin 10 μg/ml buffer at pH 7.4 and various concentrations of compounds of the invention. The amount of ^3H-SB222200 bound to the receptor was determined after filtration by the quantification of membrane associated radioactivity using the TopCount-NXT reader (Packard).

The target of series [2] is T1, human NK-3 receptor. The experiment in a line: Aequorin functional assay with human NK-3 receptor (antagonist testing). The series is classed as cell-based. Conditions: CHO cells expressing human NK-3 receptor; agonist NKA at EC80 (3 nM); read-out: Functional assay: Aequorin assay with human NK-3 receptor hNK-3 - AEQ (antagonist IC50). Here is the method: Aequorin Assay with Human NK-3 Receptor
Changes in intracellular calcium levels are a recognized indicator of G protein-coupled receptor activity. The efficacy of compounds of the invention to inhibit NKA-mediated NK-3 receptor activation was assessed by an in vitro Aequorin functional assay. Chinese Hamster Ovary recombinant cells expressing the human NK-3 receptor and a construct that encodes the photoproteinapoaequorin were used for this assay. In the presence of the cofactor coelenterazine, apoaequorin emits a measurable luminescence that is proportional to the amount of intracellular (cytoplasmic) free calcium.
The antagonist activity of compounds of the invention is measured following pre-incubation (3 minutes) of the compound (at various concentrations) with the cells, followed by addition of the reference agonist (NKA) at a final concentration equivalent to the EC80 (3 nM) and recording of emitted light (FDSS 6000 Hamamatsu) over the subsequent 90-second period. The intensity of the emitted light is integrated using the reader software. Compound antagonist activity is measured based on the concentration-dependent inhibition of the luminescence response to the addition of Neurokinin A.
The IC50 values shown in Table 2 indicate that compounds of the invention are potent NK-3 antagonist compounds.

For another series, the target named is human NK-1 receptor (Homo sapiens (Human), UniProt P25103). The experiment in a line: Selectivity binding assay, human NK-1 ([3H] substance P). Conditions: CHO cell membranes; 2 nM [3H] substance P; read-out: hNK-1 (Ki). The method, then: (§1) Selectivity of the compounds of the invention was determined over the other human NK receptors, namely NK-1 and NK-2 receptors.
Chain of human NK-1 receptor (P25103 whole entry): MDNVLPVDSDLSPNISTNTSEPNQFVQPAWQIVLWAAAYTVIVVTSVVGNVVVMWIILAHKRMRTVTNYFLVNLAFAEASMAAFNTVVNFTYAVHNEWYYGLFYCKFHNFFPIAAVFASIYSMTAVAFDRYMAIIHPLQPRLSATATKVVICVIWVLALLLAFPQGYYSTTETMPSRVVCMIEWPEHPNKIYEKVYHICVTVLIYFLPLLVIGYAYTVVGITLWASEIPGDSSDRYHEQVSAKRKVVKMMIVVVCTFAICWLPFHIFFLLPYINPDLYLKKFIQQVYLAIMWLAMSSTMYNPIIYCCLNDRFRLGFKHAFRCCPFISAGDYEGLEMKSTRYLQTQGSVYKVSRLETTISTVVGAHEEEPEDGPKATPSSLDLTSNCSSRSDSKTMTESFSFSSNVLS
The affinity of compounds of the invention for the NK-1 receptor was evaluated in CHO recombinant cells which express the human NK-1 receptor. Membrane suspensions were prepared from these cells. The following radioligand: [^3H] substance P (PerkinElmer Cat#NET111520) was used in this assay. Binding assays were performed in a 50 mM Tris/5 mM MnCl2/150 mM NaCl/0.1% BSA at pH 7.4. Binding assays consisted of 25 μl of membrane suspension (approximately 5 μg of protein/well in a 96 well plate), 50 μl of compound or reference ligand (Substance P) at increasing concentrations (diluted in assay buffer) and 2 nM [^3H] substance P. The plate was incubated 60 min at 25° C. in a water bath and then filtered over GF/C filters (Perkin Elmer, 6005174, presoaked in 0.5% PEI for 2 h at room temperature) with a Filtration unit (Perkin Elmer). The radioactivity retained on the filters was measured by using the TopCount-NXT reader (Packard). Competition curves were obtained for compounds of the invention and the concentrations of compounds which displaced 50% of bound radioligand (IC50) were determined and then apparent inhibition constant Ki values were calculated by the following equation: Ki=IC50/(1+[L]/KD) where [L] is the concentration of free radioligand and KD is its dissociation constant at the receptor, derived from saturation binding experiments (Cheng and Prusoff, 1973).

The target in a further series is human NK-2 receptor (Homo sapiens (Human), UniProt P21452). The experiment in a line: Selectivity binding assay, human NK-2 ([125I]-Neurokinin A). Conditions: CHO cell membranes; 0.1 nM [125I]-Neurokinin A; read-out: hNK-2 (Ki). The method, then: as §1
Chain of human NK-2 receptor (P21452 whole entry): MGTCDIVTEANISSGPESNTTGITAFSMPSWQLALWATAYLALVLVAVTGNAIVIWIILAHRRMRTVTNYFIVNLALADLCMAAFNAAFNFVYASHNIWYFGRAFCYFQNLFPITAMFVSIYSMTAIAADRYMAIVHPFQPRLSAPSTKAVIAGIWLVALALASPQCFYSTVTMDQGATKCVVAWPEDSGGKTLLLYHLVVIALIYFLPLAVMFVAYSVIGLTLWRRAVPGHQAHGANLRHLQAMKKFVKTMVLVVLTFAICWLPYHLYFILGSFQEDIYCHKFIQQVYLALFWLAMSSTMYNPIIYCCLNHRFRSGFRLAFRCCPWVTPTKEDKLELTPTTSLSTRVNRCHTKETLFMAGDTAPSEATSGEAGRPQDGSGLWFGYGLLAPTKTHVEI
The affinity of compounds of the invention for the NK-2 receptor was evaluated in CHO recombinant cells which express the human NK-2 receptor. Membrane suspensions were prepared from these cells. The following radioligand [^125I]-Neurokinin A (PerkinElmer Cat#NEX252) was used in this assay. Binding assays were performed in a 25 mM HEPES/1 mM CaCl2/5 mM MgCl2/0.5% BSA/10 μg/ml saponin, at pH 7.4. Binding assays consisted of 25 μl of membrane suspension (approximately 3.75 μg of protein/well in a 96 well plate), 50 μl of compound or reference ligand (Neurokinin A) at increasing concentrations (diluted in assay buffer) and 0.1 nM [^125I]-Neurokinin A. The plate was incubated 60 min at 25° C. in a water bath and then filtered over GF/C filters (Perkin Elmer, 6005174, presoaked in assay buffer without saponine for 2 h at room temperature) with a Filtration unit (Perkin Elmer). The radioactivity retained on the filters was measured by using the TopCount-NXT reader (Packard). Competition curves were obtained for compounds of the invention and the concentrations of compounds which displaced 50% of bound radioligand (IC50) were determined and then apparent inhibition constant Ki values were calculated by the following equation: Ki=IC50/(1+[L]/KD) where [L] is the concentration of free radioligand and KD is its dissociation constant at the receptor, derived from saturation binding experiments (Cheng and Prusoff, 1973).

The test system of the next series is plasma protein. Nature of the series: Determination of plasma protein binding (rapid equilibrium dialysis). The series is classed as in vitro ADME. Conditions: 4 hours at 37° C. The text has this:
Determination of Plasma Protein Binding
The pharmacokinetic and pharmacodynamic properties of chemicals/drugs are largely a function of the reversible binding of chemicals to plasma or serum proteins. Generally, only the unbound or “free fraction” of a drug is available for diffusion or transport across cell membranes, and for interaction with a pharmacological/toxicological target. Consequently, the extent of the plasma protein binding (PPB) of a compound influences its action as well as its distribution and elimination.
The determination of plasma protein binding (PPB) of a compound is enabled by equilibrium dialysis, an accepted and standard method for reliable estimation of the non-bound drug fraction in plasma. RED (Rapid Equilibrium Dialysis) device insert is made of two side-by-side chambers separated by an O-ring-sealed vertical cylinder of dialysis membrane (MWCO˜8,000). Plasma containing drug (at 5 μM or blood concentrations otherwise corresponding to efficacious doses, if known) is added to one chamber while buffer is added to the second. After 4 hours incubation at 37° C. under shaking, an aliquot is removed from each chamber and analyzed by a LC-MS/MS procedure enables the determination of both free and bound drug.
The percentages provided in Table 4 represent for the compounds of the invention the bound drug fraction to the plasma protein. The “free fraction” may be calculated as 100%−% rPPB (i.e. the complementary percentage of that disclosed in Table 4, corresponding to the drug concentration that is unbound and therefore available to engage biological target and elicit pharmacological activity).

The mark [3] stands for this setting: CHO cell membranes, 5 nM 3H-SB222200, Table 2, read-out: Competitive binding assay with human NK-3 receptor hNK-3 (Ki).
The mark [4] stands for this setting: Table 3 (selectivity table), read-out: hNK-3 (Ki).

Molecules are shown by their SMILES. Like-named read-outs stand apart in the source and are kept apart here.

T1 sequence (P29371 whole entry): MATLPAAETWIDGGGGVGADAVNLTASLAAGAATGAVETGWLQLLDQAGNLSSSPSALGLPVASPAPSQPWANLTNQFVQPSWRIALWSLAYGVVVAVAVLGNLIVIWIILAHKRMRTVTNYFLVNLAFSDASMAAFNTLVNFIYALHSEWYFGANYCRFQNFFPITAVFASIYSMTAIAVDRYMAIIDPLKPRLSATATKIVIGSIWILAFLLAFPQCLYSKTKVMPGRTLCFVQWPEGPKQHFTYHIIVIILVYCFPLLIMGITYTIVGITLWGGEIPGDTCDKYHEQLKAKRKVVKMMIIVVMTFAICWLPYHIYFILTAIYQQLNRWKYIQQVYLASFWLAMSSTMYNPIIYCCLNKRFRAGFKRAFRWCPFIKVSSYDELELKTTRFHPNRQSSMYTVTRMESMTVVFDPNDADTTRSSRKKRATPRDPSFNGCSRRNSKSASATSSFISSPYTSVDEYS

For `C[C@@H]1c2nnc(-c3csc(C(F)(F)F)n3)n2CCN1C(=O)c1ccc(F)c(F)c1F` [Compound 14, (R)-(8-methyl-3-(2-(trifluoromethyl)thiazol-4-yl)-5,6-dihydro-[1,2,4]triazolo[4,3-a]pyrazin-7(8H)-yl)(2,3,4-trifluorophenyl)methanone], the inhibition constant Ki on human NK-3 receptor [1] (setting [3]) was determined as 40 nM; on human NK-3 receptor [1] (setting [4]), 40 nM; on human NK-1 receptor it was 28000 nM; at human NK-2 receptor, 15000 nM. In addition, at human NK-3 receptor [2], the half-maximal inhibitory concentration (IC50) was found to be 59 nM. Moreover, the “Exposure (% rPPB), bound drug fraction to the plasma protein” value (from here on “Exposure (% rPPB), bound drug fraction”) with plasma protein was found to be 69%.

Take `Cc1ccc(-c2nnc3n2CCN(C(=O)c2ccc(Cl)c(F)c2)[C@@H]3C)o1` [Compound 9, (R)-(4-chloro-3-fluorophenyl)(8-methyl-3-(5-methylfuran-2-yl)-5,6-dihydro-[1,2,4]triazolo[4,3-a]pyrazin-7(8H)-yl)methanone]: the inhibitory constant (Ki) on human NK-3 receptor [1] (setting [3]) stood at 38 nM; on human NK-3 receptor [1] (setting [4]), 38 nM; on human NK-1 receptor it was 13000 nM; at human NK-2 receptor it was 14000 nM. For the same compound, the IC50 on human NK-3 receptor [2] turned out to be 53 nM. Besides, the “Exposure (% rPPB), bound drug fraction” value with plasma protein worked out at 68%.

On to `C[C@@H]1c2nnc(-c3csc(C(F)(F)F)n3)n2CCN1C(=O)c1cc(F)c(F)c(F)c1` [Compound 15, (R)-(8-methyl-3-(2-(trifluoromethyl)thiazol-4-yl)-5,6-dihydro-[1,2,4]triazolo[4,3-a]pyrazin-7(8H)-yl)(3,4,5-trifluorophenyl)methanone], for which the Ki at human NK-3 receptor [1] (setting [3]) worked out at 13 nM; on human NK-3 receptor [1] (setting [4]), 13 nM; at human NK-1 receptor, 24000 nM; on human NK-2 receptor, 3500 nM. Besides, the 50% inhibitory concentration (IC50) on human NK-3 receptor [2] amounted to 24 nM. Moreover, the “Exposure (% rPPB), bound drug fraction” value in the series with plasma protein came out at 60%.

`Cc1ccc(-c2nnc3n2CCN(C(=O)c2ccc(Cl)c(Cl)c2)[C@@H]3C)o1` [Compound 11, (R)-(3,4-dichlorophenyl)(8-methyl-3-(5-methylfuran-2-yl)-5,6-dihydro-[1,2,4]triazolo[4,3-a]pyrazin-7(8H)-yl)methanone]: the Ki stood at 27 nM at human NK-3 receptor [1] (setting [3]), 27 nM on human NK-3 receptor [1] (setting [4]), 6900 nM at human NK-1 receptor and 4200 nM on human NK-2 receptor. For the same compound, the IC50 at human NK-3 receptor [2] turned out to be 36 nM. In addition, the “Exposure (% rPPB), bound drug fraction” value with plasma protein amounted to 76%.

As for `C[C@@H]1c2nnc(-c3csc(C(F)(F)F)n3)n2CCN1C(=O)c1ccc(F)c(Cl)c1` [Compound 16, (R)-(3-chloro-4-fluorophenyl)(8-methyl-3-(2-(trifluoromethyl)thiazol-4-yl)-5,6-dihydro-[1,2,4]triazolo[4,3-a]pyrazin-7(8H)-yl)methanone], the inhibition constant Ki amounted to 14 nM at human NK-3 receptor [1] (setting [3]), 14 nM on human NK-3 receptor [1] (setting [4]), 9400 nM on human NK-1 receptor and 1500 nM at human NK-2 receptor. Moreover, the IC50 on human NK-3 receptor [2] amounted to 23 nM. Also, the “Exposure (% rPPB), bound drug fraction” value in the series with plasma protein is on record as 82%.

Take `Cc1ccc(-c2nnc3n2CCN(C(=O)c2ccc(F)c(Cl)c2)[C@@H]3C)o1` [Compound 8, (R)-(3-chloro-4-fluorophenyl)(8-methyl-3-(5-methylfuran-2-yl)-5,6-dihydro-[1,2,4]triazolo[4,3-a]pyrazin-7(8H)-yl)methanone]: the inhibitory constant (Ki) on human NK-3 receptor [1] (setting [3]) is 44 nM; at human NK-3 receptor [1] (setting [4]), 44 nM; on human NK-1 receptor, 18000 nM; at human NK-2 receptor, 9100 nM. Besides, the IC50 at human NK-3 receptor [2] stood at 62 nM. For the same compound, in the series on plasma protein, the “Exposure (% rPPB), bound drug fraction” value stood at 47%.

Take `C[C@@H]1c2nnc(-c3csc(C(F)(F)F)n3)n2CCN1C(=O)c1ccc(F)c(F)c1` [Compound 13, (R)-(3,4-difluorophenyl)(8-methyl-3-(2-(trifluoromethyl)thiazol-4-yl)-5,6-dihydro-[1,2,4]triazolo[4,3-a]pyrazin-7(8H)-yl)methanone]: the Ki at human NK-3 receptor [1] (setting [3]) came out at 20 nM; at human NK-3 receptor [1] (setting [4]) it was 20 nM; at human NK-1 receptor, 21000 nM; at human NK-2 receptor it was 7000 nM. In addition, the IC50 at human NK-3 receptor [2] came out at 26 nM. For the same compound, in the series on plasma protein, the “Exposure (% rPPB), bound drug fraction” value amounted to 51%.

These data come from US9840508B2, “N-acyl-(3-substituted)-(8-methyl)-5,6-dihydro-[1,2,4]triazolo[4,3-a] pyrazines as selective NK-3 receptor antagonists, pharmaceutical composition, methods for use in NK-3 receptor-mediated disorders” (EUROSCREEN SA, priority 2013, dated 2017).
